Measurements published in article PMC7177849, “Gut Microbial Catabolites of Tryptophan Are Ligands and Agonists of the Aryl Hydrocarbon Receptor: A Detailed Characterization” (International Journal of Molecular Sciences, 2020).
Like-named read-outs stand apart in the source and are kept apart here.

Experiments:
CYP1A1 mRNA [1] = experiment: CYP1A1 mRNA (qRT-PCR) in intestinal LS180 cells; format: cell-based, human
Experimental: (§1) Figure 4 Effects of MICT on the induction of CYP1A1 mRNA in human hepatic and intestinal cells. Cultured cells were incubated for 24 h with the vehicle (DMSO; 0.1% v/v) and tested MICT in the presence or absence of TCDD (10 nM). RT-PCR determined the level of CYP1A1 mRNA, and the data were normalized per GAPDH mRNA level. […] (A,B) Experiments in three consecutive passages of human colon adenocarcinoma cell line LS180 in the absence (A) and the presence (B) of 10 nM TCDD. The bar graphs show the percentage of maximal induction attained by TCDD and are expressed as the mean ± SD. (C) Experiments in three consecutive passages of wild-type (AhR^+/^+) and AhR-knockout (AhR^−/^−) HT-29 cells. […] (D) Primary human hepatocytes from three different donors (LH79, Hep2201020, and Hep2201021).
(§2) Total RNA was isolated using TRI Reagent® (Sigma Aldrich, Prague, Czech Republic). cDNA was synthesized using M-MuLV reverse transcriptase (New England Biolabs, Ipswich, MA, USA). The reverse transcription was performed at 42 °C for 60 min using Random Primers 6 (New England Biolabs, Ipswich, MA, USA) and diluted in a 1:4 ratio by PCR-grade water. The quantitative reverse transcriptase-polymerase chain reaction (qRT-PCR) was performed on the Lightcycler 480 II using the LightCycler ® 480 Probes Master (Roche Diagnostic Corporation, Prague, Czech Republic). The levels of CYP1A1 and GAPDH mRNAs were determined using the Universal Probe Library probes (UPL; Roche Diagnostic Corporation, Prague, Czech Republic) in combination with specific primers, using a protocol described elsewhere. All measurements were performed in triplicates, and the gene expression was normalized to glyceraldehyde-3-phosphate dehydrogenase (GAPDH) as a house-keeping gene. The data were processed using the delta-delta Ct method and expressed as a fold induction over the negative control (DMSO) or as a percentage of the positive control (maximal induction by TCDD).

CYP1A1 mRNA [2] = experiment: CYP1A1 mRNA (qRT-PCR) in primary human hepatocytes; format: cell-based; settings: three donors, 24 h
Experimental: as §1
Primary human hepatocyte cultures were from two sources: (i) long-term human hepatocytes in monolayer batch Hep2201020 (person) and Hep2201021 (person) were purchased from Biopredic International (Rennes, France); (ii) primary human hepatocytes from multiorgan donor LH79 were prepared at Palacky University Olomouc. Liver tissue was obtained from Faculty Hospital Olomouc, and the tissue acquisition protocol followed the requirements issued by the “Ethical Committee of the Faculty Hospital Olomouc, Czech Republic” and Transplantation law #285/2002 Coll.
as §2

CYP1A1 mRNA [3] = experiment: Summary of CYP1A1 gene expression in human hepatic and intestinal cells; format: cell-based; settings: Table 1 summary class; CYP1A1
Experimental: as §1, §2

AhR = target: T1, AhR (Homo sapiens, UniProt P35869); experiment: Reporter gene assay in AZ-AHR cells, antagonist analyses against TCDD, BaP, FICZ; settings: for effect on AhR activation by BaP / effect on AhR activation by TCDD / antagonistic effect against full agonists / effect on AhR activation by FICZ: AZ-AHR cells, 24 h; for effect on AhR activation by BaP: BaP 15.8 µM; for effect on AhR activation by TCDD: TCDD 13.5 nM; for antagonistic effect against full agonists: TCDD, BaP and FICZ at EC80; for effect on AhR activation by FICZ: FICZ 22.6 µM
T1 sequence (P35869 11-848): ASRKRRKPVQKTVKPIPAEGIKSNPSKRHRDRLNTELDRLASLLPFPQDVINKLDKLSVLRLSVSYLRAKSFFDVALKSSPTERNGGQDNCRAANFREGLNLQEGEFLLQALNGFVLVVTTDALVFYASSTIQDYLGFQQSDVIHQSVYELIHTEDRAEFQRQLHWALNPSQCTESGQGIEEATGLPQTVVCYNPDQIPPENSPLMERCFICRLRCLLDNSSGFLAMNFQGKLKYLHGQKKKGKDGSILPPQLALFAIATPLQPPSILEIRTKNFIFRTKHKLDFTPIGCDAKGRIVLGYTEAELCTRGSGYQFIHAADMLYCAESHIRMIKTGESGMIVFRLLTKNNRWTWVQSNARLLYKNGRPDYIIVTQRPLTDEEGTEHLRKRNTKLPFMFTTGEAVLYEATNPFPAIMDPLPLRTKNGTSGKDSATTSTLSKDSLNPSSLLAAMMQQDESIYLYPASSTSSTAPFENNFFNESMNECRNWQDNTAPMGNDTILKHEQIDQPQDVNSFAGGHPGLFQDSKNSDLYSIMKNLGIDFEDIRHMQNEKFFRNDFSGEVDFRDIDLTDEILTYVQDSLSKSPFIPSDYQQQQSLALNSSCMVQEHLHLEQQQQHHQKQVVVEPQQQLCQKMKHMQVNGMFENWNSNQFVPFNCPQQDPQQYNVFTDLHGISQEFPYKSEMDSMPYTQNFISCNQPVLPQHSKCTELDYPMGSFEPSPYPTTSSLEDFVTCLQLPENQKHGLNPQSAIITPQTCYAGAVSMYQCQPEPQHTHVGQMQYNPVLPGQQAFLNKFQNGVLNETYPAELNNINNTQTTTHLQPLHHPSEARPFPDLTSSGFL
Experimental: In the first series of experiments, we evaluated the agonistic and antagonistic effects of MICT on the AhR activation. […] The antagonistic effects of MICT were evaluated against typical full agonists of the AhR, comprising TCDD, BaP, and FICZ, which were applied at fixed concentrations corresponding to their EC80.
AZ-AHR cells were incubated for 24 h with vehicle (DMSO; 0.1% v/v) and increasing concentrations of MICT, in the absence (agonist analyses) or the presence (antagonist analyses) of TCDD (13.5 nM), BaP (15.8 µM) and FICZ (22.6 µM). Following the treatments, we lysed cells, and luciferase activity was measured. Experiments were performed at least in four consecutive cell passages. Incubations were performed in quadruplicates (technical replicates). In agonist analyses, the data from a representative experiment, expressed as a fold induction of luciferase activity over control cells, are shown. In antagonist analyses, the data are a percentage of maximal induction, and they are the mean ± SD.
AZ-AHR cells were incubated for 24 h with vehicle (DMSO; 0.1% v/v) and increasing concentrations of tested MICT in the presence or absence of TCDD (13.5 nM), FICZ (22.6 µM), or BaP (15.8 µM). Then, cells were lysed, and luciferase activity was measured using the Tecan Infinite M200 plate luminometer (Schoeller Instruments, Czech Republic). The experiments were performed in at least four consecutive cell passages, and the treatments were in quadruplicates (technical replicates). The values of half-maximal effective concentration (EC50) for each MICT, and half-maximal inhibitory concentration (IC50—where appropriate) were calculated.

[4] = LS180 cells co-incubated with TCDD (10 nM), 24 h

Compound | antagonistic effects on CYP1A1 mRNA (CYP1A1 mRNA [1]; [4]) | induction of CYP1A1 mRNA (CYP1A1 mRNA [1]; LS180 cells, 24 h) | induction of CYP1A1 mRNA (CYP1A1 mRNA [2]) | Gene Expression (CYP1A1 mRNA [3]) | effect on AhR activation by BaP (AhR) | effect on AhR activation by TCDD (AhR) | antagonistic effect against full agonists (AhR) | Antagonism (IC50) (AhR; Table 1 summary class) | IC50 (AhR) [µM] | effect on AhR activation by FICZ (AhR) | Antagonism (IC50) (AhR) | antagonistic effects on CYP1A1 mRNA (CYP1A1 mRNA [1]) | induction of CYP1A1 mRNA (CYP1A1 mRNA [1])
Cc1c[nH]c2ccccc12 [3MI, skatole] | antagonistic effects were observed primarily | strong induction | induced | strong inducer | dose-dependently inhibited | dose-dependently inhibited | ligand-selective antagonism | ligand selective |  |  |  |  | 
O=Cc1c[nH]c2ccccc12 [IA, indole-3-aldehyde] | antagonistic effects were observed primarily |  |  | inactive |  |  | dose-dependent antagonistic effect | yes–all ligands | 100 to 200 |  |  |  | 
O=C(O)/C=C/c1c[nH]c2ccccc12 [IAC, indole-3-acrylate] | to a lesser extent | strong induction | induced | strong inducer |  |  | no antagonistic effects | none |  |  |  |  | 
NC(=O)Cc1c[nH]c2ccccc12 [IAD, indole-3-acetamide] |  | strong induction | induced | strong inducer | potentiated | antagonized |  |  |  | potentiated |  |  | 
OCCc1c[nH]c2ccccc12 [IET, indole-3-ethanol] |  |  |  | inactive |  |  | no antagonistic effects |  |  |  |  |  | 
O=C(O)C(O)Cc1c[nH]c2ccccc12 (centres unmarked) [ILA, indole-3-lactate] | to a lesser extent |  |  | inactive |  |  | no antagonistic effects |  |  |  | none |  | 
c1ccc2[nH]ccc2c1 [IND, indole] |  |  | induced | strong inducer |  |  | dose-dependent antagonistic effect | yes–all ligands |  |  |  | antagonistic effects were observed primarily | strong induction
O=C(O)C(=O)Cc1c[nH]c2ccccc12 [IPY, indole-3-pyruvate] | antagonistic effects were observed primarily | strong induction | induced | strong inducer | potentiated | antagonized |  | ligand selective |  | potentiated |  |  | 
NCCc1c[nH]c2ccccc12 [TA, tryptamine] |  | strong induction | lack of induction | strong inducer |  |  | dose-dependent antagonistic effect | yes–all ligands |  |  |  |  | 
